{"source": "patent US20060094676A1", "about": "“Compositions and methods for treating cancer using compositions comprising an inhibitor of endothelin receptor activity” (priority 2004, published 2006)", "key": {"[1]": {"tested_on": "SK-MEL-28 and LN-met cell lines", "test": "cDNA microarray analysis of differentially regulated genes", "format": "cell-based, human", "settings": "SK-MEL-28 and LN-met after 2 days BQ788, confirmed by real-time RT-PCR", "description": "Cells were cultured in the presence of BQ788 or its solvent (HCO60) for 2 days and then lysed and subjected to RNA extraction using SV Total RNA isolation kit (Promega). Two rounds of RNA amplification were conducted using RiboAmp™ RNA Amplification kit (Arcturus). Labeled cDNA was obtained by reverse transcription of 6 μl amplified RNA and incorporation of Cy3-dCTP (5-Amino-propargyl-2′-dexoycytidine 5′-triphosphate coupled to Cy3 fluorescent dye) and Cy5-dCTP (5-Amino-propargyl-2′-dexoycytidine 5′-triphosphate coupled to Cy5 fluorescent dye) (Amersham Biosciences). Human 10k arrays containing PCR products spotted onto glass slides were obtained from the Lausanne DNA Array Facility (DAF). Hybridization of labeled cDNA to microarrays was preformed for 16 h at 64° C. in a humidified chamber (Corning Costar). Scanning was done in a Scanarray 4000 scanner (Perkin Elmer). Image analysis was preformed using the ScanAlyse program (version 2.5). Data analysis was done using the R package: Statistics for Microarray analysis containing com.braju.sma package (www.r-project.org).\nTo explore the possible mechanisms that underlie the loss of viability of metastatic but not primary melanoma cells in response to ETRB antagonism, changes in gene expression profiles of BQ788-treated and untreated cells were investigated by cDNA microarray analysis. […]"}, "[2]": {"tested_on": "VEGF", "test": "Real-time RT-PCR of VEGF transcripts", "format": "cell-based, human", "settings": "BQ788 3 days", "description": "Equal amounts of RNA from cells that were treated with BQ788 for 3 days were subjected to real-time RT-PCR analysis for the detection VEGF (A), HIF-1α (B) and Gravin (C) transcripts. Differences in expression levels are shown as x fold change and are statistically significant (p<0.05) unless a column in marked as non significant (N.S.). Sections of two representative tumors derived from a human melanoma cell line grown in nude mice and injected either with vehicle (D) or BQ788 (E) were stained with anti CD-31 to highlight blood vessels (brown staining, Lahav et al, 1999).\nRNA was prepared from the different cell lines in different culture conditions using SV total RNA isolation kit (Promega) according to the manufacturer's protocol. For each sample RNA concentration was determined using the total RNA nano procedure of an Agilent bioanalyzer. A stock of SK-MEL-28 RNA aliquots was prepared containing 10, 20, 50, 100, 200, 500 and 1000 ng/12 μl for use as a standard curve and kept in −80° C. For the experimental unknown samples, a stock of 100 ng/12 μl RNA aliquots from each cell line and condition was prepared and stored at −80° C. For each real-time experiment one series of standard curve and unknown experimental series of aliquots was put on ice for use. Complementary DNA was prepared by adding to each tube 0.5 μl of random hexamers (Promega) and 1 μl of 10 mM dNTP mix (Promega) and incubating at 65° C. for 5 min. 4 μl of 5× M-MLV buffer (Promega), 1 μl of the RNase inhibitor RNasin (Promega) and 1 μl of M-MLV RT RNase H (Promega) were then added and the solution was incubated at 42° C. for 50 min followed by 15 min at 70° C. For real time reactions 15 μl of each cDNA sample were transferred to 3 wells in a 386 well plate. To each well we added 10 μl of TaqMan universal PCR master mix (Applied Biosystems), 1 μl of primers+probe mix (Assays-on-Demand from Applied Biosystems: EDNRB Hs00240747, BCL-2A1 Hs00187845, PARP-3 Hs00154151, VEGF Hs00173626, HIF-1α Hs00153153 and Gravin Hs00374507) and 4 μl of nuclease free water (Promega). Wells containing water instead of cDNA served as negative controls. The samples were subjected to 40 cycles of 15 sec at 95° C. and 1 min at 60° C. A standard curve of Ct versus RNA quantity was established and accordingly the Ct in the unknown samples was correlated to quantity of transcript.\nReal-time PCR analysis confirmed that VEGF expression levels increased 18-fold in BQ788 treated LN-met cells and 65-fold in SK-MEL-28 cells, compared to only 2-fold in primary melanoma, and no change in the Cut-met line (FIG. 5). The changes in VEGF expression levels can be explained, at least in part, by changes in the expression levels of its known regulator hypoxia inducible factor-1 oc (HIF-1α) (Maxwell, et al., Oxygen sensors and angiogenesis, Semin. Cell Dev. Biol., 13:29-37 (2002)). […]"}, "[3]": {"settings": "hypertension patients and healthy volunteers; cited from earlier work"}}, "note": "Entries after “also recorded” stand apart in the source; their conditions may differ.", "data": [{"smiles": "CCCC[C@@H](NC(=O)[C@@H](Cc1cn(C(=O)OC)c2ccccc12)NC(=O)[C@H](CC(C)(C)C)NC(=O)N1[C@H](C)CCC[C@@H]1C)C(=O)O", "note": "[BQ788, N-cis-2,6-dimethylpiperidinocarbonyl-L-γ-methylleucyl-D-1-methoxycarbonyltrptophanyl-D-norleucine]", "values": [{"measurement": "Down regulated gene", "setting": "[1]", "result": "BCL2-A1; also recorded: PARP-3; also recorded: Gravin; also recorded: EDNRB"}, {"measurement": "Up regulated gene", "setting": "[1]", "result": "VEGF and HIF-1α"}, {"measurement": "VEGF expression level change", "setting": "[2]; Cut-met line", "result": "no change"}, {"measurement": "increase in VEGF expression levels", "setting": "[2]; LN-met cells", "result": 18, "unit": "fold"}, {"measurement": "increase in VEGF expression levels", "setting": "[2]; SK-MEL-28 cells", "result": 65, "unit": "fold"}, {"measurement": "increase in VEGF expression levels", "setting": "[2]; primary melanoma", "result": 2, "unit": "fold"}, {"measurement": "toxicity in clinical trials", "setting": "[3]", "result": "not found to be toxic"}]}]}
